Where two headings read alike, the source gives them in different places.
Key:
RPMI 7951 = experiment: Emory Laboratory Cell Screen, Neutral Red, RPMI 7951; assay type: cell-based, human; conditions: RPMI 7951, Melanoma, 72 hours, read-out: Median Growth Inhibitory Concentration (GI50)
Experimental: (§1) Human tumor and endothelial cell lines were treated for 72 hours with compounds at a minimum of four concentrations between 0.1 μM-40 μM. Neutral Red assay was used to calculate cell viability.

[1] = test system: Human tumor and endothelial cell lines; experiment: Emory Laboratory Cell Screen, mean over cell lines; assay type: cell-based; conditions: Mean over the Emory cell lines, 72 hours, read-out: Median Growth Inhibitory Concentration (GI50), Mean
Experimental: as §1

HUVECS = experiment: Emory Laboratory Cell Screen, Neutral Red, HUVECS; assay type: cell-based, human; conditions: 72 hours, read-out: Median Growth Inhibitory Concentration (GI50)
Experimental: as §1

RPMI-7951 human melanoma = experiment: Neutral Red Assay, cell viability, RPMI-7951; conditions: for Neutral Red Uptake, % / Cell Viability: RPMI-7951; for Neutral Red Uptake, %: 72 hours; for Cell Viability: DMSO = 100; for viability at 5 µM / viability at 20 µM: Homo sapiens
[2] = test system: Tissue Factor (TF) production by human melanoma cell line RPMI-7951; experiment: TF ELISA, RPMI-7951; assay type: cell-based
Experimental: IMUBIND Tissue Factor ELISA Kit (American Diagnostica Inc, Greenwich, Conn.) was used to determine TF concentration in each sample. The ELISA was carried out according to manufacturer's procedure.

[3] = test system: Vascular Endothelial Growth Factor (VEGF) production by human prostate cancer cell line DU-145; experiment: VEGF ELISA, DU-145; assay type: cell-based; conditions: for VEGF (% of DMSO): DMSO = 100%
[4] = test system: Vascular Endothelial Growth Factor (VEGF) production by human melanoma cell line RPMI-7951; experiment: VEGF ELISA, RPMI-7951; conditions: for VEGF / VEGF ELISA: RPMI-7951; for VEGF ELISA: DMSO control 3713
[5] = test system: Vascular Endothelial Growth Factor (VEGF) production by human prostate cancer cell line PC-3; experiment: VEGF ELISA, PC-3; assay type: cell-based; conditions: for VEGF (% of DMSO): DMSO = 100%
MDA-MB-231 = experiment: Emory Laboratory Cell Screen, Neutral Red, MDA-MB-231; assay type: cell-based, human; conditions: Homo sapiens, MDA-MB-231, Breast Cancer, 72 hours, read-out: Median Growth Inhibitory Concentration (GI50)
Experimental: as §1

[6] = test system: Tissue Factor (TF) production by human prostate cancer cell line PC-3; experiment: TF ELISA, PC-3; assay type: cell-based; conditions: 20 μM
Experimental: (§2) Cells were treated with 1% Triton X-100 in PBS and left overnight at 4° C. overnight to solubilize TF. […] IMUBIND Tissue Factor ELISA Kit (American Diagnostica Inc, Greenwich, Conn.) was used to determine TF concentration in each sample. The ELISA was carried out according to manufacturer's procedure.

[7] = test system: Tissue Factor (TF) production by human prostate cancer cell line DU-145; experiment: TF ELISA, DU-145; assay type: cell-based; conditions: 20 μM
Experimental: as §2

[8] = 20 μM, mean of triplicate and S.D., DMSO 18760 ± 2633
[9] = Table 4, 20 μM, mean of triplicate and S.D.
[10] = 5 μM, DMSO control 4197 (EF-25: 1045)
[11] = 20 μM, mean of triplicate and S.D., DMSO 2103 ± 100
[12] = RPMI-7951, 72 h, read-out: Neutral Red Uptake, %
[13] = RPMI-7951, read-out: Cell Viability
[14] = Homo sapiens, RPMI-7951, 72 h, read-out: VEGF

GI50 [1] | SMILES | GI50 (RPMI 7951) | GI50 (HUVECS) | VEGF (% of DMSO) ([3]; 20 μM) | VEGF [3, 8] | VEGF ([3]; Table 4, 20 μM, DMSO = 100) | VEGF [3, 9] | VEGF ELISA ([4]; 5 μM) | VEGF [4, 10] | VEGF ELISA ([4]; 20 μM) | VEGF ([4]; 20 μM, DMSO control 4197) | VEGF (% of DMSO) ([5]; 20 μM) | VEGF [5, 11] | VEGF ([5]; Table 4, 20 μM, DMSO = 100) | VEGF [5, 9] | also measured
1.7 µM | CC(=O)Oc1ccccc1C=CC(=O)C=Cc1ccccc1OC(C)=O [MD286] | 1 µM | 2.3 µM |  |  |  |  |  |  |  |  |  |  |  |  | 
2.9 µM | COc1ccc(/C=C/C(=O)/C=C/c2ccc(OC)c(OC)c2)cc1OC [MD6] | 1.9 µM | 3.8 µM | (98%) | 18428 ± 3377 pg/mL | 98% | 18428 ± 3377 pg/mL | 2826 pg/ml/well | 3200 pg/mL | 273 pg/ml/well | 30 pg/mL | (87%) | 1820 ± 283 pg/mL | 87% | 1820 ± 283 pg/mL | Neutral Red Uptake, % (RPMI-7951 human melanoma; 5 μM): 97 % of control; Cell Viability (RPMI-7951 human melanoma; 5 μM): 101%; Neutral Red Uptake, % (RPMI-7951 human melanoma; 20 μM): 6 % of control; Cell Viability (RPMI-7951 human melanoma; 20 μM): 42%; TF ([2]; 1 μM, DMSO = 100): 91%; TF ([2]; 1 μM, DMSO control 7054): 6400 pg/mL; TF ([2]; 5 μM, DMSO = 100): 25%; TF ELISA ([2]; 5 μM, DMSO control 7054): 1753 pg/ml/well; TF ([2]; Table 5, 5 μM, DMSO control 7054): 1753 pg/mL; VEGF ([4]; 5 μM, DMSO = 100): 76%; VEGF ([4]; 20 μM, DMSO = 100): 1%
 | CN1CC(=Cc2ccccc2O)C(=O)C(=Cc2ccccc2O)C1 [EF34, 3,5-Bis(2-hydroxybenzylidene)1-methyl4-piperidone] |  |  |  |  |  |  |  |  |  |  |  |  |  |  | GI50 (MDA-MB-231): 0.8 µM; GI50 ([1]; Homo sapiens, Endothelial cell): 0.8 µM
 | O=C(C=Cc1ccc(O)cc1)C=Cc1ccc(O)cc1 [EF1, 1,5-Bis(4-hydroxyphenyl)penta-1,4-dien-3-one] |  |  | (105%) | 19616 ± 4624 pg/mL | 105% | 19616 ± 4624 pg/mL | 1923 pg/ml/well | 2573 pg/mL | 234 pg/ml/well | 0 pg/mL | (15%) | 325 ± 75 pg/mL | 15% | 325 ± 75 pg/mL | TF (% of DMSO) ([6]; DMSO = 100%): (53%); TF ([6]; mean of triplicate and S.D., DMSO 203 ± 6): 107 ± 9 pg/mL; viability at 5 µM (RPMI-7951 human melanoma; [12]): 92%; viability at 20 µM (RPMI-7951 human melanoma; [12]): 8%; viability at 5 µM (RPMI-7951 human melanoma; [13]): 98%; viability at 20 µM (RPMI-7951 human melanoma; [13]): 43%; activity at 5 µM [4, 14]: 61%; activity at 20 µM [4, 14]: 0%; TF (% of DMSO) ([7]; DMSO = 100%): (167%); TF ([7]; mean of triplicate and S.D., DMSO 7699 ± 406): 12879 ± 149 pg/mL
